Source: patent US20210123061A1, “METHODS AND COMPOSITIONS FOR TREATING INFLAMMATORY DISEASE OR DISORDER” (THE BRIGHAM AND WOMEN'S HOSPITAL, INC., priority 2018, published 2021)
Like-named read-outs stand apart in the source and are kept apart here.

T1: Signal transducer and activator of transcription 1 (STAT1)
T1 chain: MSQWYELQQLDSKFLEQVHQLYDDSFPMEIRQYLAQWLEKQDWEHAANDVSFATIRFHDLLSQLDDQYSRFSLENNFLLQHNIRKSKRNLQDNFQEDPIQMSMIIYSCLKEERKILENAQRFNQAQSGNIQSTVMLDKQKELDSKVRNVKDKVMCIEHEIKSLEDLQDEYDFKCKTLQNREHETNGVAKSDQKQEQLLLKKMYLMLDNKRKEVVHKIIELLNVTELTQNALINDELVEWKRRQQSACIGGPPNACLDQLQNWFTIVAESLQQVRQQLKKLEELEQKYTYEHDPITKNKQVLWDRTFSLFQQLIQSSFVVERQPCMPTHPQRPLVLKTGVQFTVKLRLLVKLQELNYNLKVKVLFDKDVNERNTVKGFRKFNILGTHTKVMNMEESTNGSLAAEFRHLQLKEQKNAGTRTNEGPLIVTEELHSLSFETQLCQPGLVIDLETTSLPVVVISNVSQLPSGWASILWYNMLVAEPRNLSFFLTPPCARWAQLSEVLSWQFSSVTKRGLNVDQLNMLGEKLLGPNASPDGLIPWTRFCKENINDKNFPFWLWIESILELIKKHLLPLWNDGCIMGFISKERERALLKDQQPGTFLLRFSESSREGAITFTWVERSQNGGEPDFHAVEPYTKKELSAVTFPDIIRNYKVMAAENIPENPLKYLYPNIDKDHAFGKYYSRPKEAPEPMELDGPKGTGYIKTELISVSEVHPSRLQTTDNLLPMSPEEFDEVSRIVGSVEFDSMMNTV

B1: Ribosomal S6 Kinase-1 (RSK1), recombinant (protein)
chain: MEQDPKPPRLRLWALIPWLPRKQRPRISQTSLPVPGPGSGPQRDSDEGVLKEISITHHVKAGSEKADPSHFELLKVLGQGSFGKVFLVRKVTRPDSGHLYAMKVLKKATLKVRDRVRTKMERDILADVNHPFVVKLHYAFQTEGKLYLILDFLRGGDLFTRLSKEVMFTEEDVKFYLAELALGLDHLHSLGIIYRDLKPENILLDEEGHIKLTDFGLSKEAIDHEKKAYSFCGTVEYMAPEVVNRQGHSHSADWWSYGVLMFEMLTGSLPFQGKDRKETMTLILKAKLGMPQFLSTEAQSLLRALFKRNPANRLGSGPDGAEEIKRHVFYSTIDWNKLYRREIKPPFKPAVAQPDDTFYFDTEFTSRTPKDSPGIPPSAGAHQLFRGFSFVATGLMEDDGKPRAPQAPLHSVVQQLHGKNLVFSDGYVVKETIGVGSYSECKRCVHKATNMEYAVKVIDKSKRDPSEEIEILLRYGQHPNIITLKDVYDDGKHVYLVTELMRGGELLDKILRQKFFSEREASFVLHTIGKTVEYLHSQGVVHRDLKPSNILYVDESGNPECLRICDFGFAKQLRAENGLLMTPCYTANFVAPEVLKRQGYDEGCDIWSLGILLYTMLAGYTPFANGPSDTPEEILTRIGSGKFTLSGGNWNTVSETAKDLVSKMLHVDPHQRLTAKQVLQHPWVTQKDKLPQSQLSHQDLQLVKGAMAATYSALNSSKPTPQLKPIESSILAQRRVRKLPSTTL

Columns and labels:
[1] = system: RSK1 (S230p) phosphorylation site; details: P100 dataset, cited from earlier work
[2] = system: RSK1 (RPS6KA1) gene expression; details: cited from earlier work; for RSK1 (agents that alter RSK1 expression): Table 1, pert_type trt_cp = small molecule, trt_sh = shRNA; for RPS6KA1 (small molecules that inhibit RSK1 expression): Table 2
[3] = target: T1, Signal transducer and activator of …

| Molecule | RSK1 (agents that alter RSK1 expression) [2] | also measured |
| --- | --- | --- |
| O=C(CCCCCCC(=O)Nc1ccccc1)NO [vorinostat] |  | modulation of RSK1-S230p phosphorylation ([1]; YAPC cell line): modulated |
| C=C[C@](C)(O)CC/C=C(\C)C(=O)O[C@H]1[C@H](O)[C@@H](O)[C@H](O[C@@](C)(C=C)CC/C=C(\CO)C(=O)O[C@H]2C[C@]3(C(=O)O[C@@H]4O[C@H](CO)[C@@H](O)[C@H](O)[C@H]4O[C@@H]4O[C@@H](C)[C@H](O[C@@H]5O[C@@H](CO)[C@H](O)[C@H]5O)[C@@H](O[C@@H]5O[C@H](CO)[C@@H](O)[C@H](O)[C@H]5O)[C@H]4O)[C@H](O)C[C@]4(C)C(=CC[C@@H]5[C@@]6(C)CC[C@H](O[C@@H]7O[C@H](CO[C@@H]8O[C@H](C)[C@H](O)[C@H](O)[C@H]8O[C@@H]8OC[C@@H](O)[C@H](O)[C@H]8O)[C@@H](O)[C@H](O)[C@H]7NC(C)=O)C(C)(C)[C@@H]6CC[C@]54C)[C@@H]3CC2(C)C)O[C@@H]1C [avicin-g] | −1.17 |  |
| CC(C)C[C@@H](C(=O)N[C@H](C(=O)OC1CCCC1)c1ccccc1)[C@H](O)C(=O)NO [tosedostat, αS-[[(2R)-2-[(1S)-1-hydroxy-2-(hydroxyamino)-2-oxoethyl]-4-methyl-1-oxopentyl]amino]-benzeneacetic acid, cyclopentyl ester] | −0.96 | RPS6KA1 (small molecules that inhibit RSK1 expression) [2]: −0.96 |
| CCNC(=O)c1noc(-c2cc(C(C)C)c(O)cc2O)c1-c1ccc(CN2CCOCC2)cc1 [NVP-AUY922] | −1.23 |  |
| CC(C(=O)Nc1cccc(/N=C/c2c(O)ccc3ccccc23)c1)c1ccccc1 (stereo not shown) [salermide] | −0.98 | RPS6KA1 (small molecules that inhibit RSK1 expression) [2]: −0.98 |
| C/C=C/C/C=C/CCC(=O)[C@H]1O[C@H]1C(N)=O [cerulenin, (2R,3S)-3-[(4E,7E)-1-Oxo-4,7-nonadien-1-yl]-2-oxiranecarboxamide] | −1.40 | RPS6KA1 (small molecules that inhibit RSK1 expression) [2]: −1.40 |
| c1ccc2c(-c3cnn4cc(-c5ccc(N6CCNCC6)cc5)cnc34)ccnc2c1 [LDN-193189] | −1.38 |  |
| CC1=NN(c2ccc(C(=O)O)cc2)C(=O)/C1=C/c1ccc(-c2cc(C)c(C)cc2[N+](=O)[O-])o1 [BRD-K68548958] | −0.99 |  |
| Cc1c[nH]c(-c2cnc(NCCNc3ccc(C#N)cn3)nc2-c2ccc(Cl)cc2Cl)n1 [CHIR-99021] |  | modulation of RSK1-S230p phosphorylation ([1]; YAPC cell line): modulated |
| Oc1cccc(-c2nc(N3CCOCC3)c3oc4ncccc4c3n2)c1 [PI-103] | −0.54 |  |
| CCCC[C@@H](C)/C=C(C)/C=C(\C)C(=O)NC1=C[C@@](O)(/C=C/C=C/C=C/C(=O)NC2=C(O)CCC2=O)C2O[C@@H]2C1=O (stereo partly drawn) [manumycin-a, N-[(1S,5S,6R)-5-hydroxy-5-[(1E,3E,5E)-7-[(2-hydroxy-5-oxo-1-cyclopenten-1-yl)amino]-7-oxo-1,3,5-heptatrien-1-yl]-2-oxo-7-oxabicyclo [4.1.0]hept-3-en-3-yl]-2E,4E,6R-trimethyl,2,4-decadienamide] | −1.48 | RPS6KA1 (small molecules that inhibit RSK1 expression) [2]: −1.48 |
| C=CCn1c(=O)c2cnc(Nc3ccc(N4CCN(C)CC4)cc3)nc2n1-c1cccc(C(C)(C)O)n1 [MK-1775] |  | RSK1 expression effect under various conditions ([2]; FIG. 20): U937-specific effect |
| CN[C@@H]1C[C@H]2O[C@@](C)([C@@H]1OC)n1c3ccccc3c3c4c(c5c6ccccc6n2c5c31)C(=O)NC4 [Staurosporine] |  | modulation of RSK1-S230p phosphorylation ([1]; MCF7 cell line): modulated |
| C=C1[C@@H](O)[C@@H]2O[C@]3(CC[C@H](/C=C/[C@@H](C)[C@@H]4CC(C)=C[C@@]5(O[C@H](C[C@@](C)(O)C(=O)O)CC[C@H]5O)O4)O3)CC[C@H]2O[C@@H]1[C@@H](O)C[C@H](C)[C@H]1O[C@@]2(CCCCO2)CC[C@H]1C [okadaic acid] |  | modulation of RSK1-S230p phosphorylation ([1]; YAPC cell line): modulated |
| C=CCNC1=C2C[C@@H](C)C[C@H](OC)[C@H](O)[C@@H](C)/C=C(\C)[C@H](OC(N)=O)[C@@H](OC)/C=C\C=C(/C)C(=O)NC(=CC1=O)C2=O [tanespimycin, 17-N-allylamino-17-demethoxygeldanamycin] |  | RPS6KA1 (small molecules that inhibit RSK1 expression) [2]: −1.17 |
| CN(C)C(=O)c1cccc(-c2cccc(-c3nc(C(=O)NC4CCCCC4)cc4c3[C@@H](CCO)N([S@+]([O-])C(C)(C)C)C4)c2)c1 [BRD-K08663380] | −0.65 |  |
| FC(F)c1nc2ccccc2n1-c1nc(N2CCOCC2)nc(N2CCOCC2)n1 [ZSTK-474] | −0.73 |  |
| C[S+]([O-])CCCCN=C=S (stereo not shown) [sulforaphane] | −0.50 |  |
| O=C1[C@H](Cc2ccc(O)cc2)N2C(=O)CCN(C(=O)NCc3ccccc3)[C@H]2CN1Cc1cccc2ccccc12 [BRD-K73261812] | −0.97 |  |
| O=C(c1ccc(C(=O)N2CCC(N3CCCC3)CC2)c(Nc2ccccc2)c1)N1CCC(N2CCCC2)CC1 [UNC-1215] |  | modulation of RSK1-S230p phosphorylation ([1]; PC3 cell line): modulated |
| B1 |  | phosphorylation of STAT1 at Ser727 in vitro (kinase reaction, immunoblot) [3]: RSK1 is capable of phosphorylating STAT1 at Ser727 in vitro |
